In ChEMBL document CHEMBL1201862, “PubChem BioAssay data set” (2004):
Each block holds one compound with its values, some of them ahead of it. Calls of active or inactive are those of the source.

Legend:
[1] = biological target: T1, Scavenger receptor class B member 1 (Mus musculus, UniProt Q61009); experiment: blockers of DiI-HDL lipid transfer via SR-BI – cell-based, ldlA[mSR-BI] CHO, DiI fluorescence, dry powder, set 10, dose response (AID 624029); format: functional
T1 sequence (Q61009 whole entry): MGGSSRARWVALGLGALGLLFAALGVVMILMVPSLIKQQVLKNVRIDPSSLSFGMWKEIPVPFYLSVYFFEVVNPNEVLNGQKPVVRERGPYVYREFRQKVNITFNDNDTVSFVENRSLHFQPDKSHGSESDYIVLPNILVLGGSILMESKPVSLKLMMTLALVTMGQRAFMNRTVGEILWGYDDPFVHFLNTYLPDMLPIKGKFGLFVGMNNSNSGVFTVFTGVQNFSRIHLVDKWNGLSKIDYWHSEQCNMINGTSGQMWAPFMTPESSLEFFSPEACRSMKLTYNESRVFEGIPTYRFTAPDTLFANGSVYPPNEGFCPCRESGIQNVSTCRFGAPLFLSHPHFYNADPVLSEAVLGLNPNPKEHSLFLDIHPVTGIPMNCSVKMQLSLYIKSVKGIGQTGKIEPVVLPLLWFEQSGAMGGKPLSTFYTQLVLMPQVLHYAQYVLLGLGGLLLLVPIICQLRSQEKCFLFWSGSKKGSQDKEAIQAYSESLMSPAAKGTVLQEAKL

[2] = cell viability loss, ATP luminescence – CellTiter-Glo, 24 h, powder samples, set 7, cytotoxicity control for SR-BI HDL uptake inhibitor project, dose response (AID 624026); format: functional, cell-based
[3] = cytotoxicity in MITF-independent A375 cells – cell-based, CellTiter-Glo luminescence, dry powder, set 4, counter-screen for MITF inhibitor project, dose response (AID 624364); format: functional; settings: A-375;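 also: A375 melanoma cells are MITF independent so this is a counter screen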
[4] = viability loss in MITF-independent A375 cells – cell-based, CellTiter-Glo luminescence, dry powder, set 2, counter-screen for MITF inhibitor project, dose response (AID 624489); format: functional; settings: A-375;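 also: actives are compounds lowering A375 viability meaning general cytotoxicity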
[5] = viability loss in A549 lung cancer cells – cell-based, cherry-picks, […], cytotoxicity control, dose response (AID 1053119); format: functional
[6] = viability loss in HEK293 kidney cells – cell-based, cherry-picks, set 5, cytotoxicity control, dose response (AID 1053117); format: functional
[7] = viability loss in HepG2 hepatoma cells – cell-based, cherry-picks, set 5, cytotoxicity control, dose response (AID 1053118); format: functional
[8] = biological target: NAD-dependent protein deacylase sirtuin-5, mitochondrial (Homo sapiens, UniProt Q9NXA8); experiment: blockers of sirtuin-5 peptide desuccinylation – biochemical, fluorescence imaging, cherry-pick, set 6, dose response (AID 720597)
[9] = rescue of ΔF508 CFTR function, airway epithelium – human bronchial epithelial cells, plate reader, cherry-pick, two tests, dose response (AID 743267); format: functional, cell-based
[10] = biological target: Metabotropic glutamate receptor 3 (Rattus norvegicus, UniProt P31422); experiment: inhibition of rat mGlu3 glutamate signaling – HEK/GIRK cells, thallium flux, dose response (AID 651839); format: functional
[11] = Cytotoxicity screening for potential Inhibitors of Bacterial Capsule Biogenesis (4).; format: functional
[12] = Late stage assay provider results from the probe development effort to identify selective inhibitors of heat shock protein 90 (HSP90): Absorbance-based cell proliferation assay in SKBR3 cells.; format: functional; settings: SK-BR-3
[13] = Late stage assay provider results from the probe development effort to identify selective inhibitors of heat shock protein 90 (HSP90): Absorbance-based cell proliferation assay in MCF7 cells.; format: functional
[14] = anti-trypanosomal activity in BESM host cells – imaging, CA-I/72 strain, bovine embryo skeletal muscle, dry powder, dose response (AID 651885); format: functional, cell-based
[15] = biological target: T1, Scavenger receptor class B member 1; experiment: mouse SR-BI DiI-HDL transfer blockers – ldlA[mSR-BI] CHO cells, fluorescence plate reader, dry powder, set 9, dose response (AID 623880); format: functional, cell-based

NAD-dependent protein deacylase sirtuin-5, mitochondrial, sequence (Q9NXA8 whole entry): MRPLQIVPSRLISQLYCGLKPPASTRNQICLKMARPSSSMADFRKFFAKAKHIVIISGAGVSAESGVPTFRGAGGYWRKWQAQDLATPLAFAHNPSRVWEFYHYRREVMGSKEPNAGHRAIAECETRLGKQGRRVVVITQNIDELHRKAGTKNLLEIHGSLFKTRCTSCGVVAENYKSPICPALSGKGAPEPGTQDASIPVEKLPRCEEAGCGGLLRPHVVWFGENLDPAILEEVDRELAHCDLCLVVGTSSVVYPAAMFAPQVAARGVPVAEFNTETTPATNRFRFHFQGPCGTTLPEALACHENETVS
Metabotropic glutamate receptor 3, sequence (P31422 whole entry): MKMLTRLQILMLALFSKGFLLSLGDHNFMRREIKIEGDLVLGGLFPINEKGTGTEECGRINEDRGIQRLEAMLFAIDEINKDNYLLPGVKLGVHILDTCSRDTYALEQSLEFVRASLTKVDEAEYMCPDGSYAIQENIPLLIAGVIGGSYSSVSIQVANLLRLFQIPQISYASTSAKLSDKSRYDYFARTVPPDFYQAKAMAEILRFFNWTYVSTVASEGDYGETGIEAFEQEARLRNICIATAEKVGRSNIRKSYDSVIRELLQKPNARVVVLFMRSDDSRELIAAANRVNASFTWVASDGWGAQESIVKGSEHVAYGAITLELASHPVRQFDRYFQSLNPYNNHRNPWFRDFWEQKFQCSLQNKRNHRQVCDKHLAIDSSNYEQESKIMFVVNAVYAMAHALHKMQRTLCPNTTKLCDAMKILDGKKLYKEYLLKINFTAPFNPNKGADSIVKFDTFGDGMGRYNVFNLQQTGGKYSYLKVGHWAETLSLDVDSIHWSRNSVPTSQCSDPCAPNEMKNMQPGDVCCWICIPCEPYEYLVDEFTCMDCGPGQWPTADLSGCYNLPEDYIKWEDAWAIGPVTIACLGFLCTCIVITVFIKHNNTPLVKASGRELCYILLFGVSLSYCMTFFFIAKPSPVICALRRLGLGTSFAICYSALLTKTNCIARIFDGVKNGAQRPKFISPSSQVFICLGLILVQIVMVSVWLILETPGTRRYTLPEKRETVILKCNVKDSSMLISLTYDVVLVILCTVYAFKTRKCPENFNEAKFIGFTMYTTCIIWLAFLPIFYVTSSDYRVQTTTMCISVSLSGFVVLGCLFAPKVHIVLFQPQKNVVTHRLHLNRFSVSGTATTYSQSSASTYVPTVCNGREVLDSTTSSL

Structure (SMILES): CC(C)NC(=O)Nc1ccc2c(c1)C(=O)N([C@@H](C)CO)C[C@H](C)[C@@H](CN(C)S(=O)(=O)c1ccc(Cl)cc1)O2
AC50 [1]: > 70 µM (inactive)
AC50 [2]: > 70 µM (inactive)

Structure (SMILES): Cc1ccc(C(=O)NC2=C(c3ccc(OC(F)(F)F)cc3)C(=O)c3ccccc3C2=O)o1
AC50 [3]: 33.4 µM (active)
AC50 [4]: 21.3 µM (active)

Structure (SMILES): O=C(Nc1ccc(Cl)cc1)N1C[C@H]2[C@@H](c3ccccc31)[C@H](CO)N2CC1CCCC1
AC50 [5]: 47.5 µM (active)
AC50 [6]: 40.4 µM (active)
AC50 [7]: 35.8 µM (active)

AC50 [8]: > 30 µM (inactive)
Structure (SMILES): C[C@@H]1CN([C@H](C)CO)S(=O)(=O)c2ccc(/C=C/c3ccccc3)cc2O[C@H]1CN(C)C(=O)Nc1cc(F)ccc1F

Structure (SMILES): COc1cccc(-c2ccc([C@@H]3[C@@H]4CN(S(=O)(=O)c5cccc(OC)c5)C[C@H]3N4)cc2)c1
AC50 [9]: 13.5 µM (active)

IC50 [10]: 6.85 µM (active)
Structure (SMILES): COc1ccc(C#Cc2ccc(C(=O)N3CCC(CO)C3)cc2)c(F)c1 (stereo unspecified)

Structure (SMILES): COc1cc(NC(=O)c2ccc3nc(N)sc3c2)ccn1
CC50 [11]: 172 µM (active)

Structure (SMILES): COc1ccc(NC(=O)c2coc(=O)c(Br)c2)cc1
IC50 [12]: 8.2 µM (active)
IC50 [13]: 2.4 µM (active)

Structure (SMILES): C[C@@H]1CN([C@@H](C)CO)C(=O)c2cccc(NC(=O)c3ccncc3)c2O[C@H]1CN(C)C
IC50 [14]: > 20 µM (inactive)

AC50 [1]: 0.146 µM (active)
AC50 [15]: 0.0114 µM (active)
Structure (SMILES): COc1c(NC(=O)C(=O)c2ccc(OCCN3CCOCC3)c3ccccc23)cc(C(C)(C)C)cc1NS(C)(=O)=O [ITX-5061 FREE BASE]
